From patent publication US7319093B2, “Antidiabetic 2-substituted-5′-O-(1-Boranotriphosphate) adenosine derivatives” (Bar-Ilan University, priority 2001, dated 2008)
“And” between values parts separate entries of the source, which are not always exact repeats. Equal entries are not always repeated. Where two headings read alike, the source gives them in different places.

Experiments:
[1] = system: rat isolated and perfused pancreas; test: Insulin secretion from isolated perfused rat pancreas (8.3 mmol/L glucose)
Procedure: (§1) The effects of the compounds on insulin secretion and vascular resistance in the rat isolated and perfused pancreas were evaluated in the presence of a slightly stimulating glucose concentration (8.3 mmol/L).
(§2) Experiments were performed in vitro in isolated perfused pancreas from male Wistar albino rats fed ad libitum and weighing 300-350 g. The pancreas was completely isolated according to a technique previously described (Loubatières et al., Diabetologia, 1969, 5, 1-10) and perfused through its own arterial system with a Krebs-Ringer bicarbonate buffer containing 8.3 mmol/L glucose and 2 g/L bovine serum albumin. A mixture of O2 (95%) and CO2 (5%) was bubbled through this medium at atmospheric pressure. The pH of the solution was 7.35. The preparation was maintained at 37.5° C. Each organ was perfused at a constant pressure (40-50 cm water) selected so as to produce a flow rate of 2.5 ml/min at the start of the experiment; in these conditions, any change in the flow rate reflects a change in vascular resistance (Hillaire-Buys et al., Eur. J. Pharmacol., 1991, 199, 309-314). A 30 min adaptation period was allowed before the first sample was taken for insulin assay. A sample was taken 15 min later, at time 45 min. Then, an infusion of ATP analogues was performed during 30 min. The pancreatic flow rate was recorded and insulin was measured in the effluent fractions.
Insulin was assayed by the radioimmunological method of Herbert et al. (J. Clin. Endocrinol. Metab., 1965, 25, 1375-1384) using a purified rat insulin as standard (Linco Research, St. Charles, Mo., USA) and anti-insulin serum (ICN Biochemicals, Miles, Puteaux, France). The assay sensitivity was 0.1 ng/ml. Insulin output from perfused pancreas is expressed as ng/min and was determined by multiplying the hormone concentration in the effluent fraction by the flow rate.
(§3) Results are expressed as means±standard error of the mean (SEM). For the kinetics of insulin secretion and vascular flow rate, the results are expressed as changes in relation to the value at time 45 min taken as 100%. For the determination of the concentration-response relationship, the mean insulin output rate was calculated as follows: the area under the curve for the drug infusion period divided by the number of minutes (AUC/30).

[2] = system: rat isolated and perfused pancreas; test: Pancreatic flow rate (vascular resistance) in isolated perfused rat pancreas; conditions: for change in pancreatic flow rate: baseline 2.5 mL/min at time 45 min = 100%
Procedure: as §1, §2, §3

dog = conditions: cited from earlier work
rat isolated pancreas = test: Glucose-dependence of the insulin response in the isolated rat pancreas; conditions: 20 nmol/L during 20 minutes, mean±sem
Procedure: The rat isolated pancreas is perfused in vitro with a physiological medium containing different concentrations of glucose. VK 38A is added during 20 minutes at 20 nmol/L. Insulin response is determined by the area under the concentration-time curve during VK 38A administration and is expressed as mean±sem.

[3] = system: Normal (non diabetic) Wistar rats; test: Effect on glycemia in vivo, glucose tolerance test; design: species or system rat; conditions: in percent of baseline values, single oral dose 0.2 mg/kg, glucose 2 g/kg i.p., 0-60 min, individual animals 1-4
Procedure: Normal (non diabetic) Wistar rats were treated with a single oral dose of VK 38A (0.2 mg/kg) or placebo (vehicle) administered just before a glucose tolerance test, in a cross-over experimental design with a 7-day wash-out period. Glucose (2 g/kg) was administered by intraperitoneal injection. Blood samples were taken before and 10, 20, 30, 60 minutes after glucose load to measure glycemia. The area under the curve of plasma glucose concentrations (in percent of baseline values) was calculated. Results in four animals are given in Table 2 (baseline glucose concentrations were 1.26±0.02 and 1.26±0.04 g/L in control and treated animals, respectively).

[4] = system: isolated and perfused rat pancreas; conditions: cited from earlier work
fed rats = conditions: cited from earlier work
[5] = injected directly to the pancreatico-duodenal artery
[6] = conscious dogs, oral administration

BP(=O)(OC[C@H]1O[C@@H](n2cnc3c(N)ncnc32)[C@H](O)[C@@H]1O)OP(=O)(O)OP(=O)(O)O (stereo partly shown) [VK 39A, adenosine-5′-O-(1-boranotriphosphate)]
insulin response compared with VK 38A [1]: clearly less potent than that of VK 38 A | change in pancreatic flow rate ([2]; 0.5 μmol/L): +7±3% | change in pancreatic flow rate ([2]; 5.0 μmol/L): +10±3%

BP(=O)(OC[C@H]1O[C@@H](n2cnc3c(N)nc(Cl)nc32)[C@H](O)[C@@H]1O)OP(=O)(O)OP(=O)(O)O (stereo partly shown) [VK 44A, 2-chloroadenosine-5′-O-(1-boranotriphosphate)]
insulin response compared with VK 38A [1]: comparable to that of VK 38A | change in pancreatic flow rate ([2]; 0.015 μmol/L): +8±3% | change in pancreatic flow rate ([2]; 0.15 μmol/L): +16±5% | change in pancreatic flow rate ([2]; 1.5 μmol/L): +12±5%

CSc1nc(N)c2ncn([C@@H]3O[C@H](COP(=O)(O)OP(=O)(O)OP(=O)(O)O)[C@@H](O)[C@H]3O)c2n1 [2-methylthio-ATP]
glycemia (dog; [5]): slightly decreased glycemia | insulin release (dog; [5]): stimulated insulin release

BP(=O)(OC[C@H]1O[C@@H](n2cnc3c(N)nc(SC)nc32)[C@H](O)[C@@H]1O)OP(=O)(O)OP(=O)(O)O (stereo partly shown) [VK 38A, 2-methylthioadenosine-5′-O-(1-boranotriphosphate)]
maximal effect on insulin secretion (AUC for 30 min in % per min) [1]: approximately 900% | transient monophasic insulin response ([1]; 1.5 nmol/L, value at time 45 min taken as 100%): 230% | concentration range of immediate and concentration-dependent insulin response ([1]; 30 min infusion): 0.0015 to 5.0 µmol/L | change in pancreatic flow rate ([2]; 0.5 μmol/L): −6±3% | change in pancreatic flow rate ([2]; 1.5 μmol/L): −10±3% | change in pancreatic flow rate ([2]; 5.0 μmol/L): −8±6% | vascular effects (pancreatic flow rate) ([2]; till 150 nmol/L): no significant effect | Insulin response (rat isolated pancreas; glucose 2.8 mmol/L): 0.97 ± 0.03 ng/min | Insulin response (rat isolated pancreas; glucose 5.0 mmol/L): 2.68 ± 0.52 ng/min | Insulin response (rat isolated pancreas; glucose 8.3 mmol/L): 33.12 ± 1.75 ng/min | AUC (VK38A-treated): area under the curve of plasma glucose concentrations [3]: 158 and 201 and 134 and 176

CCCCCCSc1nc(N)c2ncn([C@H]3O[C@@H](COP(O)(=S)OP(=O)(O)OP(=O)(O)O)[C@H](O)[C@@H]3O)c2n1 (stereo partly drawn) [2-hexylthio-ATP-α-S]
enhancement of potency relative to ATP ([4]; insulin secretion): 100 fold | increase in glucose-induced insulin secretion ([4]; nM concentration range): up to 500%

Nc1ncnc2c1ncn2[C@@H]1O[C@H](COP(=O)(O)OP(O)(O)=S)[C@@H](O)[C@H]1O [ADP-β-S, Adenosine 5′-O-(2-thio)diphosphate]
glycemia (dog; [6]): reducing glycemia | insulinemia (dog; [6]): transiently increasing insulinemia | Insulin response (fed rats): sustained insulin response | glycemia (fed rats): reduction of glycemia

BP(=O)(OC[C@H]1O[C@@H](n2cnc3c(N)nc(SC)nc32)[C@H](O)[C@@H]1O)OP(=O)(O)OP(=O)(O)O (stereo partly shown) [VK 38B, 2-methylthioadenosine-5′-O-(1-boranotriphosphate)]
insulin response compared with VK 38A [1]: less potent than that induced by isomer A | transient reduction in pancreatic flow rate (increase in vascular resistance) ([2]; from the concentration of 15 nmol/L): −27±5%
